Assay results: patent US10214508B2, “Nitrogen-containing heterocyclic compound” (Takeda Pharmaceutical Company Limited, priority 2014, dated 2019)

Each compound was assayed against T1, human M1 receptor (hCHRM1) (Homo sapiens, UniProt P11229) (assay: Measurement of M1 receptor positive allosteric modulator (M1PAM) activity, calcium fluorescence (FLIPRtetra)). Settings: 10 μM test compound with acetylcholine at EC20 (final 0.6-0.8 nM); 100% = acetylcholine 1 μM, 0% = DMSO; CHO-K1 cells expressing hCHRM1.
T1 construct: expressed in transfected cells
T1 sequence (P11229 1-460): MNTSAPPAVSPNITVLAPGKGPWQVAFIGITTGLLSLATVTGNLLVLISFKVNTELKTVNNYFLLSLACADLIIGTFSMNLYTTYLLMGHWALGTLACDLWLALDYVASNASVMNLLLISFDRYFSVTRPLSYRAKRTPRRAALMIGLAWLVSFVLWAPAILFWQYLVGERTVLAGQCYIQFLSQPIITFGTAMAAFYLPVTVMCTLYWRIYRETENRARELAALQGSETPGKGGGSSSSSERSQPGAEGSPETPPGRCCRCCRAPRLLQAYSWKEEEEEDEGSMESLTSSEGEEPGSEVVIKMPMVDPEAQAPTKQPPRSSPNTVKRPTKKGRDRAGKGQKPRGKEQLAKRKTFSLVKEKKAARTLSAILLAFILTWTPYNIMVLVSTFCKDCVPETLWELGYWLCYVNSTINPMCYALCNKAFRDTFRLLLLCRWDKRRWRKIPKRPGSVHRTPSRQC
Assay type: cell-based
Experimental: Measurement of M1 Receptor Positive Allosteric Modulator (M1PAM) Activity
The activity of a test compound in the presence of acetylcholine at EC20 concentration (final concentration 0.6-0.8 nM), which affords an action corresponding to about 20% of the maximum activity, was measured as PAM activity. The method is as follows. CHO-K1 cells stably expressing a human M1 receptor (hCHRM1) were plated on a 384-well black clear bottom plate (BD Falcon) at 5,000 cells/well, and cultured in an incubator at 37° C., 5% CO2 for 1 day. The medium in the cell plate was removed, and assay buffer A containing calcium indicator (Recording medium (DOJINDO LABORATORIES), 0.1% BSA (Wako Pure Chemical Industries, Ltd.), 2.5 μg/mL Fluo-4 AM (DOJINDO LABORATORIES), 0.08% Pluronic F127 (DOJINDO LABORATORIES), 1.25 mM probenecid (DOJINDO LABORATORIES)) was added at 30 μL/well. The cells were left standing in the incubator at 37° C., 5% CO2 for 30 min, and further left standing at room temperature for 30 min. A test compound prepared by diluting with assay buffer B (HBSS (Invitrogen), 20 mM HEPES (Invitrogen), 0.1% BSA) containing 2.4-3.2 nM acetylcholine was added at 10 μL/well, and the fluorescence was measured by FLIPRtetra (Molecular Devices) for 1 min every for 1 second. With the definition that the amount of change in the fluorescence on addition of acetylcholine (final concentration 1 μM) is 100% and that on addition of DMSO instead of a test compound is 0%, the activity (%) of the test compound was calculated, and the inflection point in the concentration-dependent curve of the test compound was calculated as IP values.

| SMILES | activity (%) at 10 μM |
| --- | --- |
| Cc1cnc(C(=O)NC2CC2(F)F)cc1Cc1ccc(-c2ccn(C)n2)cc1 (centres unmarked) [Example 22, N-(2,2-difluorocyclopropyl)-5-methyl-4-(4-(1-methyl-1H-pyrazol-3-yl)benzyl)pyridine-2-carboxamide] | 77% |
| Cc1cnc(C(=O)N[C@H]2COCC[C@@H]2O)cc1Cc1ccc(-c2ccn(C)n2)cc1F [Example 16, 1,5-anhydro-2,4-dideoxy-2-(((4-(2-fluoro-4-(1-methyl-1H-pyrazol-3-yl)benzyl)-5-methylpyridin-2-yl)carbonyl)amino)-L-threo-pentitol] | 91% |
| Cc1cnc(C(=O)N[C@H]2CCC[C@@H]2O)cc1Cc1ccc(-n2cccn2)cc1F [Example 13, 4-(2-fluoro-4-(1H-pyrazol-1-yl)benzyl)-N-((1S,2S)-2-hydroxycyclopentyl)-5-methylpyridine-2-carboxamide] | 92% |
| Cc1cnc(C(=O)NC2CCOC2)cc1Cc1ccc(-c2ccn(C)n2)cc1 (centres unmarked) [Example 31, 5-methyl-4-(4-(1-methyl-1H-pyrazol-3-yl)benzyl)-N-(tetrahydrofuran-3-yl)pyridine-2-carboxamide] | 84% |
| Cc1cnc(C(=O)NC2(CO)CC2)cc1Cc1ccc(-c2ccn(C)n2)cc1 [Example 23, N-(1-(hydroxymethyl)cyclopropyl)-5-methyl-4-(4-(1-methyl-1H-pyrazol-3-yl)benzyl)pyridine-2-carboxamide] | 84% |
| Cc1cnc(C(=O)N[C@H]2COCC[C@@H]2O)cc1Cc1ccc(-n2cccn2)cc1F [Example 36, 1,5-anhydro-2,4-dideoxy-2-(((4-(2-fluoro-4-(1H-pyrazol-1-yl)benzyl)-5-methylpyridin-2-yl)carbonyl)amino)-L-threo-pentitol] | 95% |
| Cc1cnc(C(=O)NC2CC2)cc1Cc1ccc(-c2ccn(C)n2)cc1 [Example 28, N-cyclopropyl-5-methyl-4-(4-(1-methyl-1H-pyrazol-3-yl)benzyl)pyridine-2-carboxamide] | 73% |
| O=C(N[C@H]1CCC[C@@H]1O)c1cc(Cc2ccc(-n3cccn3)cc2)c(Cl)cn1 [Example 7, 5-chloro-N-((1S,2S)-2-hydroxycyclopentyl)-4-(4-(1H-pyrazol-1-yl)benzyl)pyridine-2-carboxamide] | 104% |
| Cn1ccc(-c2ccc(Cc3cc(C(=O)N[C@H]4COCC[C@@H]4O)ncc3C(F)F)cc2)n1 [Example 40, 1,5-anhydro-2,4-dideoxy-2-(((5-(difluoromethyl)-4-(4-(1-methyl-1H-pyrazol-3-yl)benzyl)pyridin-2-yl)carbonyl)amino)-L-threo-pentitol] | 95% |
| Cc1cnc(C(=O)N[C@H]2CCC[C@@H]2O)cc1Cc1ccc(-n2cccn2)nc1 [Example 34, N-((1S,2S)-2-hydroxycyclopentyl)-5-methyl-4-((6-(1H-pyrazol-1-yl)pyridin-3-yl)methyl)pyridine-2-carboxamide] | 96% |
| Cc1cnc(C(=O)N[C@H]2CCCC[C@@H]2O)cc1Cc1ccc(-n2cccn2)nc1 [Example 35, N-((1S,2S)-2-hydroxycyclohexyl)-5-methyl-4-((6-(1H-pyrazol-1-yl)pyridin-3-yl)methyl)pyridine-2-carboxamide] | 102% |

Results, then the compound that gave them:

| activity (%) at 10 μM | SMILES |
| --- | --- |
| 102% | O=C(N[C@H]1CCCC[C@@H]1O)c1cc(Cc2ccc(-n3cccn3)cc2)ccn1 [Example 45, N-((1S,2S)-2-hydroxycyclohexyl)-4-(4-(1H-pyrazol-1-yl)benzyl)pyridine-2-carboxamide] |
| 92% | Cc1nc(C(=O)N[C@H]2CCCC[C@@H]2O)cc(Cc2ccc(-n3cccn3)cc2)c1C [Example 76, N-((1S,2S)-2-hydroxycyclohexyl)-5,6-dimethyl-4-(4-(1H-pyrazol-1-yl)benzyl)pyridine-2-carboxamide] |
| 87% | COc1cnc(C(=O)N[C@H]2CCC[C@@H]2O)cc1Cc1ccc(-n2cccn2)cc1 [Example 60, N-((1S,2S)-2-hydroxycyclopentyl)-5-methoxy-4-(4-(1H-pyrazol-1-yl)benzyl)pyridine-2-carboxamide] |
| 104% | COc1cnc(C(=O)N[C@H]2CCCC[C@@H]2O)cc1Cc1ccc(-c2cnn(C)c2)cc1 [Example 64, N-((1S,2S)-2-hydroxycyclohexyl)-5-methoxy-4-(4-(1-methyl-1H-pyrazol-4-yl)benzyl)pyridine-2-carboxamide] |
| 99% | Cc1nc(C(=O)N[C@H]2COCC[C@@H]2O)cc(Cc2ccc(Cl)nc2)c1C [Example 85, 1,5-anhydro-2-(((4-((6-chloropyridin-3-yl)methyl)-5,6-dimethylpyridin-2-yl)carbonyl)amino)-2,4-dideoxy-L-threo-pentitol] |
| 94% | Cc1nc(C(=O)N[C@H]2CCCC[C@@H]2O)cc(Cc2ccc(-n3cccn3)cc2)c1Cl [Example 98, 5-chloro-N-((1S,2S)-2-hydroxycyclohexyl)-6-methyl-4-(4-(1H-pyrazol-1-yl)benzyl)pyridine-2-carboxamide] |
| 95% | N#Cc1cnc(C(=O)N[C@H]2CCCC[C@@H]2O)cc1Cc1ccc(-n2cccn2)cc1 [Example 67, 5-cyano-N-((1S,2S)-2-hydroxycyclohexyl)-4-(4-(1H-pyrazol-1-yl)benzyl)pyridine-2-carboxamide] |
| 97% | O=C(N[C@H]1CCCC[C@@H]1O)c1cc(Cc2ccc(-n3cccn3)cc2)c(F)cn1 [Example 55, 5-fluoro-N-((1S,2S)-2-hydroxycyclohexyl)-4-(4-(1H-pyrazol-1-yl)benzyl)pyridine-2-carboxamide] |
| 89% | COc1cnc(C(=O)N[C@H]2CCCC[C@@H]2O)cc1Cc1ccc(-c2cnn(C)c2)nc1 (relative stereo) [Example 58, N-(trans-2-hydroxycyclohexyl)-5-methoxy-4-((6-(1-methyl-1H-pyrazol-4-yl)pyridin-3-yl)methyl)pyridine-2-carboxamide] |
| 108% | COc1cnc(C(=O)N[C@H]2CCCC[C@@H]2O)cc1Cc1ccc(Cl)nc1 [Example 61, 4-((6-chloropyridin-3-yl)methyl)-N-((1S,2S)-2-hydroxycyclohexyl)-5-methoxypyridine-2-carboxamide] |
| 92% | COc1nc(C(=O)N[C@H]2COCC[C@@H]2O)cc(Cc2ccc(-c3ccn(C)n3)cc2)c1C [Example 87, 1,5-anhydro-2,4-dideoxy-2-(((6-methoxy-5-methyl-4-(4-(1-methyl-1H-pyrazol-3-yl)benzyl)pyridin-2-yl)carbonyl)amino)-L-threo-pentitol] |
| 93% | Cc1ccc(Cc2cc(C(=O)N[C@H]3CCCC[C@@H]3O)nc(C)c2C)cn1 [Example 84, N-((1S,2S)-2-hydroxycyclohexyl)-5,6-dimethyl-4-((6-methylpyridin-3-yl)methyl)pyridine-2-carboxamide] |
| 91% | Cc1nc(C(=O)N[C@H]2CCCC[C@@H]2O)cc(Cc2ccc(-n3cccn3)cc2)c1C#N [Example 112, 5-cyano-N-((1S,2S)-2-hydroxycyclohexyl)-6-methyl-4-(4-(1H-pyrazol-1-yl)benzyl)pyridine-2-carboxamide] |
| 96% | COc1cc(Cc2ccc(-n3cccn3)cc2)cc(C(=O)N[C@H]2CCC[C@@H]2O)n1 [Example 68, N-((1S,2S)-2-hydroxycyclopentyl)-6-methoxy-4-(4-(1H-pyrazol-1-yl)benzyl)pyridine-2-carboxamide] |
| 106% | Cc1cnc(C(=O)N[C@H]2CCCC[C@@H]2O)cc1Cc1ccc(-n2cccn2)cc1 [Example 48, N-((1S,2S)-2-hydroxycyclohexyl)-5-methyl-4-(4-(1H-pyrazol-1-yl)benzyl)pyridine-2-carboxamide] |
